In US9890152B2 (Genentech, Inc., priority 2012, dated 2018):
Several values for one entry are separate records, joined by “and”; a condition that tells them apart may be missing. Equal values may be shown once.

Molecular target: T1, EGFR del746-750 T790M (Homo sapiens, UniProt P00533, DEL746-750/T790M)
T1 construct: purchased Carna Biosciences 08-528
Test: EGFR del746-750 T790M biochemical assay (Caliper mobility shift)
Conditions: 5 μM ATP, 30 min, room temperature; apparent Ki (Morrison) converted by Cheng-Prusoff, Km of ATP 2.1 μM; read-out: EGFR(T790M/d746-750) Ki

T1 sequence (P00533 with tags, fused parts or gaps DEL746-750/T790M limits assumed): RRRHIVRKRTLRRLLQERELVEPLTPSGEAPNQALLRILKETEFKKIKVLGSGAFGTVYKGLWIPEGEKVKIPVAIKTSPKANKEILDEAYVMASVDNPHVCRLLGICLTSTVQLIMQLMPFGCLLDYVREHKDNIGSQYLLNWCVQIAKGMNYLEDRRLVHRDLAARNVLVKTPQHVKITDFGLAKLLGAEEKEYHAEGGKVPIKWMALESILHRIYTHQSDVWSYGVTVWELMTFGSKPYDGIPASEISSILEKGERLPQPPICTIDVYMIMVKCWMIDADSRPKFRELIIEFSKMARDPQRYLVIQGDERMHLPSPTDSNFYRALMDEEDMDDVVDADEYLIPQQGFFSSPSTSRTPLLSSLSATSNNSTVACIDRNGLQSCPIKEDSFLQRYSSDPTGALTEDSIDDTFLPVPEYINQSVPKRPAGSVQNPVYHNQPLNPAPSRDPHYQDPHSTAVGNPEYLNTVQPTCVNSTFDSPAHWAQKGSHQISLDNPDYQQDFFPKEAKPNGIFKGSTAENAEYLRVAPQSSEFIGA

`CC(n1cc(C(=O)NC2CCOCC2)c2cnc(Nc3ccnc(-c4cnn(S(=O)(=O)C5CC5)c4)n3)cc21)C(F)(F)F` (stereo not shown) [Example 635, 6-(2-(1-(Cyclopropylsulfonyl)-1H-pyrazol-4-yl)pyrimidin-4-ylamino)-N-(tetrahydro-2H-pyran-4-yl)-1-(1,1,1-trifluoropropan-2-yl)-1H-pyrrolo[3,2-c]pyridine-3-carboxamide] was tested. Which Ki did it give?
The Ki was 4.53 nM.

`CC(n1cc(C(=O)NC2CCOCC2)c2cnc(Nc3ccnc(N4CCC(C)(O)CC4)n3)cc21)C(F)(F)F` (stereo not shown) [Example 636, 6-(2-(4-Hydroxy-4-methylpiperidin-1-yl)pyrimidin-4-ylamino)-N-(tetrahydro-2H-pyran-4-yl)-1-(1,1,1-trifluoropropan-2-yl)-1H-pyrrolo[3,2-c]pyridine-3-carboxamide] was tested. Which Ki did it give?
The Ki was 14.4 nM.

For `Cc1nc2cnc(Nc3ccnc(N4CCC5(CC4)OCCCO5)n3)cc2n1C(C)C` [Example 648], which Ki is on record?
The Ki was 219 nM.

`CC(C)n1c(CO)nc2cnc(Nc3ccnc(N4C[C@@H](F)[C@@H](O)C(C)(C)C4)n3)cc21` [Example 650] was tested. Which Ki did it give?
The Ki was 92 nM and 20 nM.

With `Cc1nc2cnc(Nc3ccnc(N4CCc5cn[nH]c5C4)n3)cc2n1C(C)C` [Example 651] as the molecule, how does the Ki read?
Its Ki is 9.14 nM.

`Cc1nc2cnc(Nc3ccnc(NCC4CCS(=O)(=O)C4)n3)cc2n1C(C)C` (stereo not shown) [Example 652] was tested. Which Ki did it give?
The Ki was 1160 nM.

With `Cc1nc2cnc(Nc3ccnc(N4CCC5(OCCO5)C(F)C4)n3)cc2n1C(C)C` (stereo not shown) [Example 653] as the molecule, how does the Ki read?
The Ki was 34.3 nM.

For `CC(C)n1c(CO)nc2cnc(Nc3ccnc(N4CCC5(OCCO5)C(F)C4)n3)cc21` (stereo not shown) [Example 654], which Ki is on record?
The Ki was 36 nM.

For `CO[C@H]1CCN(c2nccc(Nc3cc4c(cn3)nc(CO)n4C(C)C)n2)C[C@H]1F` [Example 655], which Ki is on record?
The Ki was 60.8 nM.

With `Cc1nc2cnc(Nc3ccnc(OCC(C)(C)S(C)(=O)=O)n3)cc2n1C(C)C` [Example 656] as the molecule, how does the Ki read?
The Ki was 214 nM.

How did the Ki turn out when `CO[C@@H]1CCN(c2nccc(Nc3cc4c(cn3)nc(CO)n4[C@@H](C)C(F)(F)F)n2)C[C@@H]1F` [Example 657] was run?
The Ki was 17.4 nM.

Which Ki does the source give for `CC(C)n1c([C@@H](C)O)nc2cnc(Nc3ccnc(N4CC[C@@H](O)[C@@H](F)C4)n3)cc21` [Example 658] here?
Its Ki is 44.3 nM.

With `CO[C@@H]1CCN(c2nccc(Nc3cc4c(cn3)nc([C@@H](C)O)n4C(C)C)n2)C[C@@H]1F` [Example 659] as the molecule, how does the Ki read?
The Ki was 39.3 nM.

How did the Ki turn out when `CC(C)n1c(CO)nc2cnc(Nc3ccnc(OCC(C)(C)S(C)(=O)=O)n3)cc21` [Example 660] was run?
The Ki was 171 nM.

With `CC(C)n1c(CO)nc2cnc(Nc3ccnc(N4CCC(S(C)(=O)=O)CC4)n3)cc21` [Example 661] as the molecule, how does the Ki read?
The Ki was 900 nM.

For `C[C@H](n1c([C@@H](C)O)nc2cnc(Nc3ccnc(N4CCC(S(C)(=O)=O)CC4)n3)cc21)C(F)(F)F` [Example 662], which Ki is on record?
Its Ki is 68.4 nM.

`C[C@H](n1c([C@@H](C)O)nc2cnc(Nc3ccnc(NCC(C)(C)S(C)(=O)=O)n3)cc21)C(F)(F)F` [Example 663] was tested. Which Ki did it give?
Its Ki is 14.5 nM.

For `CC(C)n1cc(C(=O)NC2CCOCC2)c2cnc(Nc3ccnc(NCC(C)(C)S(C)(=O)=O)n3)cc21` [Example 664], which Ki is on record?
Its Ki is 5.68 nM.

`COC1(CO)CCN(c2nccc(Nc3cc4c(cn3)nc([C@@H](C)O)n4[C@@H](C)C(F)(F)F)n2)CC1` [Example 665] was tested. Which Ki did it give?
The Ki was 11.5 nM.

How did the Ki turn out when `C[C@H](n1c(CO)nc2cnc(Nc3ccnc(N4CC[C@@H](O)[C@@H](F)C4)n3)cc21)C(F)(F)F` [Example 666] was run?
The Ki was 7.26 nM.

With `C[C@H](n1c(CO)nc2cnc(Nc3ccnc(N4CC[C@H](O)[C@H](F)C4)n3)cc21)C(F)(F)F` [Example 667] as the molecule, how does the Ki read?
The Ki was 5.65 nM.

`CC(C)n1c(CO)nc2cnc(Nc3ccnc(N4CCCCC4CCO)n3)cc21` (stereo not shown) [Example 668] was tested. Which Ki did it give?
The Ki was 451 nM.

Which Ki does the source give for `CC(C)n1c(CO)nc2cnc(Nc3ccnc(N4CCC(O)(C(F)(F)F)CC4)n3)cc21` [Example 669] here?
Its Ki is 234 nM.

How did the Ki turn out when `CC(C)n1c(CO)nc2cnc(Nc3ccnc(N4CCCCC4CO)n3)cc21` (stereo not shown) [Example 670] was run?
The Ki was 273 nM.

`CCc1ncc(-c2nccc(Nc3cc4c(cn3)nc(CO)n4C(C)C)n2)s1` [Example 671] was tested. Which Ki did it give?
The Ki was 12.6 nM.

`Cc1nc2cnc(Nc3ccnc(N4CC[C@](C)(O)[C@H](F)C4)n3)cc2n1C(C)C` [Example 672] was tested. Which Ki did it give?
Its Ki is 135 nM.

`CO[C@@]1(C)CCN(c2nccc(Nc3cc4c(cn3)nc(C)n4C(C)C)n2)C[C@H]1F` [Example 673] was tested. Which Ki did it give?
The Ki was 97.1 nM.

For `Cc1nc2cnc(Nc3ccnc(N4CC[C@@](C)(O)[C@H](F)C4)n3)cc2n1C(C)C` [Example 674], which Ki is on record?
Its Ki is 73 nM.

How did the Ki turn out when `CC(C)n1c(CO)nc2cnc(Nc3ccnc(N4CC[C@@](C)(O)[C@H](F)C4)n3)cc21` [Example 675] was run?
Its Ki is 112 nM.

Which Ki does the source give for `C[C@H](n1c([C@@H](C)O)nc2cnc(Nc3ccnc(N4CC[C@](C)(O)[C@H](F)C4)n3)cc21)C(F)(F)F` [Example 676] here?
The Ki was 8.18 nM.

How did the Ki turn out when `Cc1nc2cnc(Nc3ccnc(N4CC[C@@H](C#N)C4)n3)cc2n1C(C)C` [Example 678] was run?
Its Ki is 200 nM.

Which Ki does the source give for `Cc1nc2cnc(Nc3ccnc(N4CC[C@H](C#N)C4)n3)cc2n1C(C)C` [Example 679] here?
The Ki was 168 nM.

`Cc1nc2cnc(Nc3ccnc(N4CC[C@@H](O)C4)n3)cc2n1C(C)C` [Example 680] was tested. Which Ki did it give?
The Ki was 395 nM.

For `Cc1nc2cnc(Nc3ccnc(N4CC[C@H](O)C4)n3)cc2n1C(C)C` [Example 681], which Ki is on record?
The Ki was 189 nM.

Which Ki does the source give for `Cc1nc2cnc(Nc3ccnc(N4CCC(C)(O)CC4)n3)cc2n1C(C)C` [Example 682] here?
Its Ki is 135 nM.

Which Ki does the source give for `C[C@H](n1c([C@@H](C)O)nc2cnc(Nc3ccnc(N4CCC(C)(O)CC4)n3)cc21)C(F)(F)F` [Example 683] here?
The Ki was 13.2 nM.

How did the Ki turn out when `CO[C@H]1CCN(c2nccc(Nc3cc4c(cn3)nc([C@H](C)O)n4[C@@H](C)C(F)(F)F)n2)C[C@H]1F` [Example 684] was run?
Its Ki is 7.67 nM.

For `C[C@H](O)c1nc2cnc(Nc3ccnc(N4CC[C@@H](O)[C@@H](F)C4)n3)cc2n1[C@@H](C)C(F)(F)F` [Example 685], which Ki is on record?
Its Ki is 26.6 nM.

How did the Ki turn out when `C[C@H](O)c1nc2cnc(Nc3ccnc(N4CC[C@H](O)[C@H](F)C4)n3)cc2n1[C@@H](C)C(F)(F)F` [Example 686] was run?
The Ki was 18.5 nM.

`C[C@@H](O)c1nc2cnc(Nc3ccnc(N4CC[C@@H](O)[C@@H](F)C4)n3)cc2n1[C@H](C)C(F)(F)F` [Example 687] was tested. Which Ki did it give?
Its Ki is 107 nM.

How did the Ki turn out when `C[C@@H](O)c1nc2cnc(Nc3ccnc(N4CC[C@H](O)[C@H](F)C4)n3)cc2n1[C@H](C)C(F)(F)F` [Example 688] was run?
Its Ki is 107 nM.

With `C[C@H](O)c1nc2cnc(Nc3ccnc(N4CC[C@@H](O)[C@@H](F)C4)n3)cc2n1[C@H](C)C(F)(F)F` [Example 689] as the molecule, how does the Ki read?
Its Ki is 230 nM.

Which Ki does the source give for `C[C@H](O)c1nc2cnc(Nc3ccnc(N4CC[C@H](O)[C@H](F)C4)n3)cc2n1[C@H](C)C(F)(F)F` [Example 690] here?
The Ki was 387 nM.

How did the Ki turn out when `CC(C)n1c(CO)nc2cnc(Nc3ccnc(N4C[C@@H]5C[C@H]4CO5)n3)cc21` [Example 691] was run?
Its Ki is 736 nM.

For `CC(C)n1c(CO)nc2cnc(Nc3ccnc(N4CC5CC4C5)n3)cc21` [Example 692], which Ki is on record?
Its Ki is 140 nM.

Which Ki does the source give for `CC(C)n1c(CO)nc2cnc(Nc3ccnc(N4CCC5(CC4)CNC(=O)CO5)n3)cc21` [Example 693] here?
Its Ki is 572 nM.

With `O=C1CC(n2c(CO)nc3cnc(Nc4ccnc(-c5cnn(S(=O)(=O)C6CC6)c5)n4)cc32)CN1` (stereo not shown) [Example 694] as the molecule, how does the Ki read?
The Ki was 709 nM.

For `COCCC(C)(C)n1c(CO)nc2cnc(Nc3ccnc(-c4cnn(S(=O)(=O)C5CC5)c4)n3)cc21` [Example 695], which Ki is on record?
Its Ki is 68.8 nM.

With `CC(CC(F)(F)F)n1c(CO)nc2cnc(Nc3ccnc(-c4cnn(S(=O)(=O)C5CC5)c4)n3)cc21` (stereo not shown) [Example 696] as the molecule, how does the Ki read?
The Ki was 7.67 nM.

`CC1CCC(n2c(CO)nc3cnc(Nc4ccnc(-c5cnn(S(=O)(=O)C6CC6)c5)n4)cc32)C1` (stereo not shown) [Example 697] was tested. Which Ki did it give?
Its Ki is 16.9 nM.

How did the Ki turn out when `CC1CC1n1c(CO)nc2cnc(Nc3ccnc(-c4cnn(S(=O)(=O)C5CC5)c4)n3)cc21` (stereo not shown) [Example 698] was run?
Its Ki is 7.02 nM.

For `CO[C@@H]1CCN(c2nccc(Nc3cc4c(cn3)nc(CO)n4C(C)C)n2)C[C@H]1C` [Example 699], which Ki is on record?
Its Ki is 305 nM.

How did the Ki turn out when `CCC(C)n1cc(C(=O)NC2COCCOC2)c2cnc(Nc3ccnc(-c4cnn(S(=O)(=O)C5CC5)c4)n3)cc21` (stereo not shown) [Example 700] was run?
The Ki was 1.65 nM.

How did the Ki turn out when `C[C@H](n1c([C@@H](C)O)nc2cnc(Nc3ccnc(N4C[C@@H](F)[C@@H](O)[C@@H](F)C4)n3)cc21)C(F)(F)F` [Example 701] was run?
Its Ki is 4.4 nM.

For `CC(C)n1c(CO)nc2cnc(Nc3ccnc(N4CC[C@H](O)[C@@](C)(F)C4)n3)cc21` [Example 702], which Ki is on record?
Its Ki is 239 nM.

For `CCC(C)n1cc(C(=O)NCCO)c2cnc(Nc3ccnc(-c4cnn(S(=O)(=O)C5CC5)c4)n3)cc21` (stereo not shown) [Example 703], which Ki is on record?
The Ki was 2.5 nM.

How did the Ki turn out when `CCC(C)n1cc(C(=O)NCC(F)(F)F)c2cnc(Nc3ccnc(-c4cnn(S(=O)(=O)C5CC5)c4)n3)cc21` (stereo not shown) [Example 704] was run?
Its Ki is 3.35 nM.

How did the Ki turn out when `CCC(C)n1cc(C(=O)NC2CCC(O)CC2)c2cnc(Nc3ccnc(-c4cnn(S(=O)(=O)C5CC5)c4)n3)cc21` (stereo not shown) [Example 705] was run?
Its Ki is 2.37 nM.
